The test system of assay [1] is HeLa cells. Put plainly: HeLa DNA fragmentation (laddering on 2% agarose gel). The conditions noted are these: TNFα dose range with 5 μg/ml cycloheximide, 18 h. It is filed as cell-based. How it is done: HeLa cells are plated in full culture medium at a concentration of 5×10^5 cells/well of 24 well plate. […] Cells are cultured overnight at 37° C. before being lysed (5×10^6/treatment) in lysis buffer (1M Tris, 10 mM EDTA , 0.8% sarcosine L sulphate) and incubated on ice for 15 min before centrifugation at 12000g. Supernatant is removed and phenol/chloroform extracted. Following precipitation of DNA, pellets are resuspended in Tris/EDTA buffer (TE) containing 100 μg/ml RNAase A and incubated for 2 h @37° C. Proteinase K (100 μg/ml) is then added and sample incubated for a further 18 h before […] of DNA is separated on a 2% agarose gel.
HeLa cells are plated into 24 well plate at a concentration of 5×10^5/well and allowed to adhere for 4 hours Culture medium is then replaced with fresh medium containing the indicated concentrations of TNFα together with 5 μg/ml cycloheximide. Cultures are maintained for a further 18 h, before isolation of DNA from 5×10^6 cells/treatment (as previously described) and running on a 2% gel.

Assay [2] relates to HeLa cells. It is filed as cell-based. The conditions noted are these: together with 5 μg/ml cycloheximide, 18 hours, crystal violet. The protocol: In our system, cells are cultured in 96 well plates in 100 μl of culture medium and are treated in ways known to induce apoptosis. Following an indicated period of time, 10 μl MTT stock solution (5 mg/mi) is added to each culture being assayed and incubated at 37° C. for 4 h. At the end of the incubation period the converted dye is solubilised with acidic-isopropanol (0.04N HCL. Absorbance of converted dye is measured at a wavelength of 570 nm.
The following example describes a method to analyse viability of adherent cells, such as HeLa, using chemical stain Crystal Violet. Adherent cells are cultured in the presence of known agents to induce/ modulate the apoptotic process. After a suitable period of time, supernatants are removed by inverting and flicking the plate. Wells are washed twice with PBS and remaining adherent cells are fixed with 100% EtOH and air-dried. To each well is added 100 μl of 1% aqueous Crystal Violet Solution (Sigma). Plates are then incubated at room temperature (RT) for 5 min before washing in tap water. Wells are solubilised in 33% acetic acid and optical density is measured at 570 nm using a plate reader.
HeLa cells are plated in full culture medium at a concentration of 2×10^4 cells/well of 96 well plate. […] Cells are cultured overnight at 37° C. before analysing for apoptosis using either MTT or crystal violet.
HeLa cells are plated in full culture medium at a concentration of 2×10^4 cells/well of 96 well plate. […] Cells are cultured overnight at 37° C. before analysing for apoptosis using crystal violet.
HeLa cells are plated into 96 well plate at a concentration of 2×10^4/well and allowed to adhere for 4 hours Culture medium is then replaced with fresh medium containing the indicated concentrations of TNFα together with 5 μg/ml cycloheximide. Cultures are maintained for a further 18 hours, before measuring apoptosis with crystal violet and reading @570 nm in a plate reader.
Cells are cultured for a further 18 h before staining the remaining adherent cells with crystal violet and measuring absorbance at 570 nm.

Consider TNFα, for which the DNA laddering entry in the assay on HeLa cells [1] is “DNA fragmentation is seen in all samples treated with TNFα”. In addition, in the assay with HeLa cells [2], the “amount of HeLa apoptosis vs TNFα concentration” value is recorded as “dose. response”.

The record behind these values is patent US20030180735A1, “Screening method” (priority 1999, published 2003).
